TGI data for 8 compounds are collected here from PubChem BioAssay (NCI).

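Where inhibition never reached the appropriate level, the endpoint shown equals the highest concentration tested. Otherwise, values were interpolated linearly from a five-concentration, 48-hour dose response in 96-well plates. TGI marks complete inhibition of growth.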 Where a SMILES comes first, the peptide text is derived from it.

Among the test systems are UO-31 renal; HOP-62 NSCLC; T-47D breast; UACC-257 melanoma; HCT-116 colon; SNB-75 CNS; MOLT-4 leukemia; MALME-3M melanoma; OVCAR-3 ovarian; HL-60(TB) leukemia; DU-145 prostate; OVCAR-4 ovarian; OVCAR-8 ovarian; LOX IMVI melanoma; OVCAR-5 ovarian; IGROV1 ovarian; HS 578T breast.
What all share (test): NCI-60 cell line screen, 48 h

Turning to `O=C(O)c1nc2ccccc2nc1Nc1ccc(F)cc1`, the TGI in the experiment on UO-31 renal was greater than 100 µM; with HOP-62 NSCLC it was greater than 100 µM; with T-47D breast, greater than 100 µM; in the experiment with UACC-257 melanoma, greater than 100 µM; in the experiment on HCT-116 colon, greater than 100 µM; in the experiment on SNB-75 CNS, 81.8 µM. The TGI was greater than 100 µM in the experiment with MOLT-4 leukemia; greater than 100 µM in the experiment on MALME-3M melanoma; 77.5 µM in the experiment on OVCAR-3 ovarian; 78.8 µM in the experiment with HL-60(TB) leukemia; greater than 100 µM in the experiment with DU-145 prostate; greater than 100 µM in the experiment on OVCAR-4 ovarian. Besides, the TGI in the experiment on OVCAR-8 ovarian, in the experiment with LOX IMVI melanoma, with OVCAR-5 ovarian, in the experiment on IGROV1 ovarian and in the experiment with HS 578T breast was greater than 100 µM throughout.
For `OCc1ccc2c(c1)CC1(C2)Cc2cc3c(cc2C1)CCC3`, the TGI with UO-31 renal was greater than 100 µM; with HOP-62 NSCLC, greater than 46.5 µM; in the experiment on T-47D breast, greater than 100 µM; in the experiment with UACC-257 melanoma, greater than 100 µM; with HCT-116 colon, greater than 100 µM; in the experiment with SNB-75 CNS, 8.18 µM. The TGI in the experiment with MOLT-4 leukemia, with MALME-3M melanoma, with OVCAR-3 ovarian, in the experiment on HL-60(TB) leukemia, in the experiment with DU-145 prostate and in the experiment with OVCAR-4 ovarian was greater than 100 µM each time. Moreover, the TGI with OVCAR-8 ovarian was greater than 100 µM; in the experiment with LOX IMVI melanoma it was greater than 100 µM; in the experiment with OVCAR-5 ovarian, greater than 100 µM; in the experiment with IGROV1 ovarian it was greater than 100 µM; in the experiment on HS 578T breast it was 29.3 µM.
For `NC1=CN(Cc2ccccc2)C2=N/C(=C\c3ccccc3)C(=O)N12`, the TGI in the experiment on UO-31 renal, in the experiment with HOP-62 NSCLC, in the experiment on T-47D breast, with UACC-257 melanoma, in the experiment with HCT-116 colon and in the experiment on SNB-75 CNS was greater than 100 µM throughout. In addition, the TGI in the experiment on MOLT-4 leukemia, in the experiment on MALME-3M melanoma, in the experiment on OVCAR-3 ovarian, in the experiment on HL-60(TB) leukemia, in the experiment on DU-145 prostate and in the experiment with OVCAR-4 ovarian was greater than 100 µM each time. Moreover, the TGI with OVCAR-8 ovarian, in the experiment on LOX IMVI melanoma, in the experiment with OVCAR-5 ovarian, in the experiment on IGROV1 ovarian and in the experiment on HS 578T breast was greater than 100 µM each time.
For `Nc1nc(Cl)cc(NCC2(CO)CCC(O)C2)n1` (stereo unspecified), the TGI in the experiment with UO-31 renal, in the experiment with HOP-62 NSCLC, in the experiment with T-47D breast, in the experiment on UACC-257 melanoma, in the experiment with HCT-116 colon and in the experiment with SNB-75 CNS was greater than 100 µM each time. Besides, the TGI with MOLT-4 leukemia, in the experiment on MALME-3M melanoma, in the experiment on OVCAR-3 ovarian, in the experiment with HL-60(TB) leukemia, in the experiment on DU-145 prostate and with OVCAR-4 ovarian was greater than 100 µM each time. The TGI in the experiment with OVCAR-8 ovarian, in the experiment with LOX IMVI melanoma, in the experiment on OVCAR-5 ovarian, with IGROV1 ovarian and in the experiment with HS 578T breast was greater than 100 µM throughout.
For `CC(=O)NC(CS)C(=O)NC(CO)C(=O)NC(CO)C(=O)NC(Cc1c[nH]c2ccccc12)C(=O)N1CCCC1C(=O)NC(CO)C(=O)NC(Cc1c[nH]c2ccccc12)C(=O)NC(Cc1c[nH]cn1)C(=O)NC(CO)C(=O)NC(Cc1c[nH]c2ccccc12)C(=O)NCC(=O)NCC(=O)NC(CC(=O)O)C(=O)NC(CCC(N)=O)C(=O)NC(CCCCN)C(=O)NC(Cc1ccccc1)C(=O)NC(CCCNC(=N)N)C(=O)NC(CCCCN)C(N)=O` (stereo unspecified) (Ac-CSSWPSWHSWGGDQKFRK-NH2; configuration not given here), the TGI in the experiment with UO-31 renal, in the experiment on HOP-62 NSCLC, in the experiment on T-47D breast, in the experiment with UACC-257 melanoma, with HCT-116 colon and with SNB-75 CNS was greater than 25 µM throughout. Besides, the TGI in the experiment on MOLT-4 leukemia, with MALME-3M melanoma, with OVCAR-3 ovarian, in the experiment on HL-60(TB) leukemia, with DU-145 prostate and in the experiment on OVCAR-4 ovarian was greater than 25 µM throughout. The TGI in the experiment on OVCAR-8 ovarian, with LOX IMVI melanoma, with OVCAR-5 ovarian, in the experiment on IGROV1 ovarian and in the experiment on HS 578T breast was greater than 25 µM each time.
Regarding `NNc1ccccc1Cl`, the TGI in the experiment on UO-31 renal, in the experiment on HOP-62 NSCLC, in the experiment with T-47D breast, with UACC-257 melanoma, with HCT-116 colon and in the experiment on SNB-75 CNS was greater than 100 µM throughout. Besides, the TGI in the experiment on MOLT-4 leukemia, with MALME-3M melanoma, in the experiment with OVCAR-3 ovarian, in the experiment on HL-60(TB) leukemia, in the experiment on DU-145 prostate and in the experiment with OVCAR-4 ovarian was greater than 100 µM each time. Moreover, the TGI in the experiment on OVCAR-8 ovarian, with LOX IMVI melanoma, in the experiment on OVCAR-5 ovarian, with IGROV1 ovarian and in the experiment with HS 578T breast was greater than 100 µM in each case.
As to `O=c1cc(O)c2ccccc2o1`, the TGI in the experiment with UO-31 renal, with HOP-62 NSCLC, with T-47D breast, in the experiment on UACC-257 melanoma, in the experiment on HCT-116 colon and in the experiment with SNB-75 CNS was greater than 100 µM each time. Besides, the TGI with MOLT-4 leukemia, in the experiment on MALME-3M melanoma, with OVCAR-3 ovarian, in the experiment on HL-60(TB) leukemia, with DU-145 prostate and in the experiment on OVCAR-4 ovarian was greater than 100 µM each time. For the same compound, the TGI in the experiment on OVCAR-8 ovarian, with LOX IMVI melanoma, in the experiment with OVCAR-5 ovarian, in the experiment on IGROV1 ovarian and in the experiment with HS 578T breast was greater than 100 µM each time.
On to `NC1CC(=O)c2csc(Cl)c21` (stereo unspecified), for which the TGI is 12.7 µM in the experiment on UO-31 renal; 29.1 µM with HOP-62 NSCLC; greater than 23.6 µM in the experiment with T-47D breast; 29 µM in the experiment with UACC-257 melanoma; 14.1 µM in the experiment on HCT-116 colon; 31.8 µM with SNB-75 CNS. Also, the TGI in the experiment on MOLT-4 leukemia amounted to 3.87 µM; with MALME-3M melanoma, 7.56 µM; in the experiment on OVCAR-3 ovarian, 30.9 µM; in the experiment on HL-60(TB) leukemia, 13.1 µM; with DU-145 prostate, 20.9 µM; in the experiment with OVCAR-4 ovarian it was 68.8 µM. In addition, the TGI in the experiment on OVCAR-8 ovarian was 23 µM; in the experiment with LOX IMVI melanoma, 24.1 µM; with OVCAR-5 ovarian, 37.1 µM; in the experiment on IGROV1 ovarian, 42.2 µM; in the experiment with HS 578T breast, greater than 100 µM.
